Source: PMC7076352 (Pharmaceutics, 2020)
Read-outs that look alike come from different tables or passages of the source.

Assays:
CYP3A4 [1] = assay: in vitro
Description: (§1) (OHBUP-[D6]) and 5 nM 4′-hydroxydiclofenac-[^13C6] (OHDIC-[^13C6]) as internal standards (ISs). […]
(§2) standard addition experiments. Each group included four concentration levels. For the PK […]
(§3) The probe compounds, viz. […]
(§4) chosen after incubating all the recruited substrates. In order to assure the linear relationship […]
(§5) The incubation system was also optimized in terms of substrate concentrations. The substrates concentrations of […]

CYP3A4 [2] = settings: read-out: Reported Km; probe substrate MID, CYP3A4, literature range ref 9; cited from earlier work
CYP1A2 [3] = molecular target: T1, CYP1A2 (Rattus norvegicus, UniProt P04799); assay: In vitro cocktail CYP450 activity assay in rat liver microsomes, CYP1A2 (phenacetin probe); settings: IC50 CYP1A2, single components; RLM 0.2 mg/mL, 15 min, triplicate, mean ± SD
T1 sequence (P04799 1-513): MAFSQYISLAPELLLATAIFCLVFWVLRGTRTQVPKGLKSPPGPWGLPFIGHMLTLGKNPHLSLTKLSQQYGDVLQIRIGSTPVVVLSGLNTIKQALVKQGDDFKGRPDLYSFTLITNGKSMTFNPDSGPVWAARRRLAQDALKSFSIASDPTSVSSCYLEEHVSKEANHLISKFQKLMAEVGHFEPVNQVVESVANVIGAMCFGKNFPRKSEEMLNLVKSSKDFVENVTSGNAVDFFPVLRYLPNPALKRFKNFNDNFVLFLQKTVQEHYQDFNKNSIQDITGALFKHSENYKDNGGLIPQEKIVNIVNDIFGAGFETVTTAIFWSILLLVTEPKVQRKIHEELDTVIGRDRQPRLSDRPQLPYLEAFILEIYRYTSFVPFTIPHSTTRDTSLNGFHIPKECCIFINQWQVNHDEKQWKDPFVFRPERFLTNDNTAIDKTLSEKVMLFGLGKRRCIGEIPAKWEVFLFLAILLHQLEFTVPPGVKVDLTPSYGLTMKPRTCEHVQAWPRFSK
Description: as §1, §2, §3, §4, §5

CYP2E1 [4] = molecular target: T2, CYP2E1 (Rattus norvegicus, UniProt P05182); settings: Sprague-Dawley, rat, 15 min, pH 7.4
T2 sequence (P05182 whole entry): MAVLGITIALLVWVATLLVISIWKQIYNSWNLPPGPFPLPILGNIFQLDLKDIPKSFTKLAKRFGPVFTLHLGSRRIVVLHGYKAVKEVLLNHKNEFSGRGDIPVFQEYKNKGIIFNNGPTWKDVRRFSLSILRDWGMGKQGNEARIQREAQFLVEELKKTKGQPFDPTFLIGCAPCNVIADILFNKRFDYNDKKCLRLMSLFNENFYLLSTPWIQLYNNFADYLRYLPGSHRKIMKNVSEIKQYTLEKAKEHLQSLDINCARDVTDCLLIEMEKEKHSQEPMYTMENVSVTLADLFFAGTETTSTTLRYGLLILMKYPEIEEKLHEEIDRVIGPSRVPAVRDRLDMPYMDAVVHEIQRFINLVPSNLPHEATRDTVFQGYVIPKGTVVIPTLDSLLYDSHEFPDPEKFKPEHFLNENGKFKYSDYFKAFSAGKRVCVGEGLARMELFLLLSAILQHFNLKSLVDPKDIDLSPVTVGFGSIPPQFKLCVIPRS

CYP2E1 [5] = molecular target: T2, CYP2E1; settings: IC50 CYP2E1, single components; RLM 0.2 mg/mL, 15 min, triplicate, mean ± SD
CYP2B6 = assay: In vitro cocktail CYP450 activity assay in rat liver microsomes, CYP2B6 (bupropion probe); settings: Sprague-Dawley, rat, pooled rat liver microsomes, pH 7.4, probe bupropion (90 µM, in seven-probe cocktail), IC50 CYP2B6, single components; RLM 0.2 mg/mL, 15 min, triplicate, mean ± SD
Description: as §1, §2, §3, §4, §5

CYP2C9 = assay: In vitro cocktail CYP450 activity assay in rat liver microsomes, CYP2C9 (tolbutamide probe)
Description: as §1, §2, §3, §4, §5

CYP2D6 = assay: in vitro; settings: Sprague-Dawley, rat
Description: as §1, §2, §3, §4, §5

CYP2C19 = assay: In vitro cocktail CYP450 activity assay in rat liver microsomes, CYP2C19 (omeprazole probe)
Description: as §1, §2, §3, §4, §5

in vivo = assay: in vivo; set-up: species or system Sprague-Dawley (SD) rats; settings: Sprague-Dawley, plasma, rat
Description: At each time, 0.5 mL of blood was collected in the heparin sodium tubes. Plasma was separated by centrifugation at 4000 rpm for 10 min and stored below −80 °C until bioanalysis. Oasis PRiME HLB SPE cartridges (1 cc/30 mg, Waters, Milford, MA, USA) were used to process the plasma samples (Supplementary Materials).
The generic layout of instrumentation setup of the LVDI-UHPLC-MS/MS was conducted on a Shimadzu UHPLC system consisting of two LC-20ADXR pumps, a DGU-20A3R degasser, and a CBM-20A controller (Kyoto, Japan) with a SCIEX 4500 QTRAP mass spectrometer mounted with an electron spray ionization (ESI) interface as well as an electronic 6-port/2-channel valve (Foster City, CA, USA). Analyst software package (version 1.6.2, SCIEX) was implemented to control and synchronize the entire system, and also for data acquisition and processing. A single analytical run was fragmented into two phases, namely, loading and elution phases, by switching the electronic valve (Figure 2). At the loading phase, the valve was maintained at A-channel. The specimen aliquot of large volume delivered from the auto-sampler was captured onto a guard column. Meanwhile, the pumps were responsible for delivering the mobile phase at a high flow rate, aiming to dilute the sample solvent, thus facilitating the candidate constituents to concentrate on the pre-guard column. Then, the valve was automatically switched to the B-channel to trigger the elution phase. The trapped components were flushed from the pre-guard column into an analytical column, and underwent multiple reaction monitoring (MRM) analysis on the optimized LC gradients. The detailed information of LVDI-UHPLC-MS/MS analysis for pharmacokinetic and cocktail studies is shown in the Supplementary Materials section.

CYP1A2 [6] = molecular target: T1, CYP1A2; settings: read-out: Reported Km; probe substrate PHE, CYP1A2, literature range ref 9; cited from earlier work
[7] = at the Cmax level in rat plasma, calculated from the dose–response curve

In the case of `Cc1ncc2n1-c1ccc(Cl)cc1C(c1ccccc1F)=NC2` [MID, midazolam, reference compound], the Km (CYP3A4 [1]; SD, rat, pH 7.4) is listed as 11 ± 1.51 µM and the Km (CYP3A4 [2]) is listed as 1 to 14 µM.
With `CC(C)=CCC[C@](C)(O[C@@H]1O[C@H](CO)[C@@H](O)[C@H](O)[C@H]1O)[C@H]1CC[C@]2(C)[C@@H]1[C@H](O)C[C@@H]1[C@@]3(C)CC[C@H](O)C(C)(C)[C@@H]3[C@@H](O[C@@H]3O[C@H](CO)[C@@H](O)[C@H](O)[C@H]3O[C@@H]3OC[C@@H](O)[C@H](O)[C@H]3O)C[C@]12C` [NGR1, notoginsenoside R1] the IC50 (CYP1A2 [3]) was 112 ± 7.72 µM, the “Response (% control) CYP2E1” value (CYP2E1 [4]) was 99.99 % control and the IC50 (CYP2E1 [5]) was 122 ± 8.96 µM. The IC50 at 15 min (CYP2B6) was > 200 µM, the IC50 at 15 min (CYP2C9; Sprague-Dawley, rat, pooled rat liver microsomes, pH 7.4, probe tolbutamide (18 µM, in seven-probe cocktail), IC50 CYP2C9, single components, RLM 0.2 mg/mL, 15 min, triplicate, mean ± SD) was 154 ± 16.6 µM and the “Response (% control) CYP2C9” value (CYP2C9; [7]) was 99.99 % control. The “Response (% control) CYP2D6” value (CYP2D6; 15 min, pH 7.4) was 92.76 % control, the IC50 at 15 min (CYP2D6; microsomes, pH 7.4, IC50 CYP2D6) was 20.4 ± 3.45 µM and the IC50 (CYP3A4 [1]; Sprague-Dawley, rat, microsomes, pH 7.4, IC50 CYP3A4, single components, RLM 0.2 mg/mL, 15 min, triplicate, mean ± SD) was 84.6 ± 1.79 µM. The “Response (% control) CYP3A4” value (CYP3A4 [1]; [7]) was 99.94 % control, the IC50 at 15 min (CYP2C19; Sprague-Dawley, rat, pooled rat liver microsomes, pH 7.4, probe omeprazole (1.07 µM, in seven-probe cocktail), IC50 CYP2C19, single components, RLM 0.2 mg/mL, 15 min, triplicate, mean ± SD) was 108 ± 29.6 µM and the “Response (% control) CYP2C19” value (CYP2C19; [7]) was 92.32 % control. It also gave a concentration at […] (in vivo; 0.083 h after oral CNP) of 0.26 ± 0.06 ng/mL, a concentration at 0.25 h (in vivo; 0.25 h after oral CNP) of 0.36 ± 0.05 ng/mL and a concentration at 0.5 h (in vivo; 0.5 h after oral CNP) of 0.53 ± 0.29 ng/mL. For the same molecule, the concentration at 1 h (in vivo; 1 h after oral CNP) was 0.45 ± 0.19 ng/mL, the concentration at 1.5 h (in vivo; 1.5 h after oral CNP) was 0.33 ± 0.12 ng/mL and the concentration at 2 h (in vivo; 2 h after oral CNP) was 0.32 ± 0.05 ng/mL. For the same molecule, the concentration at 3 h (in vivo; 3 h after oral CNP) was 0.44 ± 0.15 ng/mL, the concentration at 4 h (in vivo; 4 h after oral CNP) was 0.38 ± 0.12 ng/mL and the concentration at 6 h (in vivo; 6 h after oral CNP) was 0.37 ± 0.17 ng/mL. It also gave a concentration at 8 h (in vivo; 8 h after oral CNP) of 0.46 ± 0.15 ng/mL, a concentration at 12 h (in vivo; 12 h after oral CNP) of 0.38 ± 0.18 ng/mL and a concentration at 24 h (in vivo; 24 h after oral CNP) of 0.17 ± 0.06 ng/mL. It also gave an AUC(0-inf) (in vivo; po, 60 mg/kg) of 8.14 ± 3.6 ng·h/mL, an AUC(0-t) (in vivo; po, 60 mg/kg) of 6.3 ± 2.41 ng·h/mL and a Cmax (in vivo; po, 60 mg/kg) of 0.64 ± 0.18 ng/mL. The Tmax (in vivo; po, 60 mg/kg) was 1.15 ± 1.06 h, the half-life (in vivo; po, 60 mg/kg) was 10.5 ± 3.06 h and the concentration at 0.25 h (in vivo; po, 60 mg·kg^−1) was 0.46 ± 0.18 ng/mL. For the same molecule, the concentration at 0.5 h (in vivo; po, 60 mg·kg^−1) was 0.5 ± 0.15 ng/mL, the concentration at 1 h (in vivo; po, 60 mg·kg^−1) was 0.45 ± 0.14 ng/mL and the concentration at 1.5 h (in vivo; po, 60 mg·kg^−1) was 0.28 ± 0.1 ng/mL. The concentration at 2 h (in vivo; po, 60 mg·kg^−1) was 0.25 ± 0.11 ng/mL, the concentration at 3 h (in vivo; po, 60 mg·kg^−1) was 0.46 ± 0.2 ng/mL and the concentration at 4 h (in vivo; po, 60 mg·kg^−1) was 0.38 ± 0.26 ng/mL. For the same molecule, the concentration at 6 h (in vivo; po, 60 mg·kg^−1) was 0.25 ± 0.06 ng/mL, the concentration at 8 h (in vivo; po, 60 mg·kg^−1) was 0.35 ± 0.06 ng/mL and the concentration at 12 h (in vivo; po, 60 mg·kg^−1) was 0.35 ± 0.14 ng/mL. It also gave a concentration at 24 h (in vivo; po, 60 mg·kg^−1) of 0.14 ± 0.04 ng/mL.
For `CCOc1ccc(NC(C)=O)cc1` [PHE, phenacetin], the Km (CYP1A2 [6]) is listed as 1.7 to 152 µM.
